Reference: patent US11780826B2 (Amgen Inc., priority 2017, dated 2023)

These compounds were tested on Bovine cardiac myofibrils (assay: In vitro model of dose-dependent myofibril ATPase modulation (AC1.4, pyruvate kinase/lactate dehydrogenase-coupled ATPase assay at pCa25)). Conditions: concentration at which ATPase activity was 1.4-fold higher than the bottom of the dose curve, mean of a minimum of two independent tests.
Assay type: biochemical
Procedure, shortened: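 Detergent-skinned bovine cardiac myofibrils (typically 0.25-1.0 mg/ml) in Ca-buffered (EGTA/CaCl2) PK/LDH-coupled ATPase assay: 12 mM K-PIPES pH 6.80, 2 mM MgCl2, 1 mM ATP, 1 mM DTT, 0.5 mM NADH, 1.5 mM PEP. Hydrolysis followed at 340 nm; dose response fit to 4-parameter equation; AC1.4 is mean of ≥2 tests.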
With `COc1ccc(S(C)(=O)=O)cc1C(=O)N1CCCC[C@@H]1C(=O)N[C@@H](c1ccc(C(F)(F)F)cc1F)C1CC1` [Example 646, (2R)-N-((R)-cyclopropyl(2-fluoro-4-(trifluoromethyl)phenyl)methyl)-1-(2-methoxy-5-(methylsulfonyl)benzoyl)-2-piperidinecarboxamide] the AC1.4 was 4.377 µM. For `CC(C)(C)c1cc(C(=O)N2[C@@H](C(=O)N[C@@H](c3ccc(C(F)(F)F)cc3F)C3COC3)C[C@H]3C[C@H]32)ccn1` [Example 647, (1R,3R,5R)-N-((R)-(2-fluoro-4-(trifluoromethyl)phenyl)(3-oxetanyl)methyl)-2-((2-(2-methyl-2-propanyl)-4-pyridinyl)carbonyl)-2-azabicyclo[3.1.0]hexane-3-carboxamide], the AC1.4 was 4.4125 µM. Compound `N#CC1CN(S(=O)(=O)N2CC[C@H](C(=O)N3CCC[C@@H]3C(=O)NCc3ccc(C(F)(F)F)cc3)C2)C1` [Example 648, 1-(((3S)-1-((3-cyano-1-azetidinyl)sulfonyl)-3-pyrrolidinyl)carbonyl)-N-(4-(trifluoromethyl)benzyl)-D-prolinamide] has an AC1.4 of 4.421 µM. `CON(C)S(=O)(=O)c1cccc(C(=O)N2CCC[C@@H]2C(=O)NCc2ccc(C(F)(F)F)cc2)c1` [Example 649, 1-(3-(methoxy(methyl)sulfamoyl)benzoyl)-N-(4-(trifluoromethyl)benzyl)-D-prolinamide] gave an AC1.4 of 4.4365 µM. `N#CC1CN(S(=O)(=O)N2CCC[C@H](C(=O)N3CCC[C@@H]3C(=O)NCc3cc(Cl)ccc3Cl)C2)C1` [Example 651, 1-(((3S)-1-((3-cyano-1-azetidinyl)sulfonyl)-3-piperidinyl)carbonyl)-N-(2,5-dichlorobenzyl)-D-prolinamide] gave an AC1.4 of 4.4705 µM. Work on `N#CC1CN(S(=O)(=O)N2CCC[C@H](C(=O)N3CCC[C@@H]3C(=O)NCc3ccc(F)cc3C(F)(F)F)C2)C1` [Example 652, 1-(((3S)-1-((3-cyano-1-azetidinyl)sulfonyl)-3-piperidinyl)carbonyl)-N-(4-fluoro-2-(trifluoromethyl)benzyl)-D-prolinamide] yielded an AC1.4 of 4.5245 µM. With `O=C(N[C@@H](c1ccc(C(F)(F)F)cc1F)C1CC1)[C@H]1CCCCN1C(=O)c1ccc2c(c1)S(=O)(=O)CC2` [Example 653, (2R)—N—((R)-cyclopropyl(2-fluoro-4-(trifluoromethyl)phenyl)methyl)-1-((1,1-dioxido-2,3-dihydro-1-benzothiophen-6-yl)carbonyl)-2-piperidinecarboxamide] the AC1.4 was 4.5245 µM. In the case of `O=C(NCc1ccc(C(F)(F)F)cc1)[C@H]1CCCN1C(=O)[C@H]1CCCN(S(=O)(=O)N2CC3(CCO3)C2)C1` [Example 654, (R)-1-((S)-1-(1-oxa-6-azaspiro[3.3]heptan-6-ylsulfonyl)piperidine-3-carbonyl)-N-(4-(trifluoromethyl)benzyl)pyrrolidine-2-carboxamide], the AC1.4 is reported as 4.538 µM. `N#CC1CN(S(=O)(=O)c2cccc(C(=O)N3CCC[C@@H]3C(=O)NCc3cccc(C(F)(F)F)n3)c2)C1` [Example 655, 1-((3-((3-cyano-1-azetidinyl)sulfonyl)phenyl)carbonyl)-N-((6-(trifluoromethyl)-2-pyridinyl)methyl)-D-prolinamide] was tested, and the AC1.4 was 4.5443 µM. `CS(=O)(=O)c1cccc(C(=O)N2C[C@@H](C(F)F)C[C@@H]2C(=O)N[C@@H](c2ccc(C(F)(F)F)cc2F)C2CC2)c1` [Example 656, (4S)-N-((R)-cyclopropyl(2-fluoro-4-(trifluoromethyl)phenyl)methyl)-4-(difluoromethyl)-1-(3-(methylsulfonyl)benzoyl)-D-prolinamide] was tested, and the AC1.4 was 4.071 µM. For `N#CC1CN(S(=O)(=O)N2CCC[C@H](C(=O)N3CCC[C@@H]3C(=O)NC3COc4ccc(C(F)(F)F)cc43)C2)C1` (stereo partly drawn) [Example 657, (2R)-1-((S)-1-((3-cyanoazetidin-1-yl)sulfonyl)piperidine-3-carbonyl)-N-(5-(trifluoromethyl)-2,3-dihydrobenzofuran-3-yl)pyrrolidine-2-carboxamide], the AC1.4 was 4.572 µM. For `Cc1ccnc(C(=O)N2[C@@H](C(=O)N[C@@H](c3cc(F)c(C(F)(F)F)cc3F)C3CC3)C[C@H]3C[C@H]32)c1` [Example 658, (1R,3R,5R)-N-((R)-cyclopropyl(2,5-difluoro-4-(trifluoromethyl)phenyl)methyl)-2-((4-methyl-2-pyridinyl)carbonyl)-2-azabicyclo[3.1.0]hexane-3-carboxamide], the AC1.4 was 4.159 µM. With `N#CC1CN(S(=O)(=O)N2CCC[C@H](C(=O)N3CCC[C@@H]3C(=O)NCc3c(F)cccc3C(F)(F)F)C2)C1` [Example 659, 1-(((3S)-1-((3-cyano-1-azetidinyl)sulfonyl)-3-piperidinyl)carbonyl)-N-(2-fluoro-6-(trifluoromethyl)benzyl)-D-prolinamide] the AC1.4 was 4.605 µM. For `Cc1ccc(Cl)c(CNC(=O)[C@H]2CCCN2C(=O)[C@H]2CCCN(S(=O)(=O)N3CC(C#N)C3)C2)c1` [Example 660, N-(2-chloro-5-methylbenzyl)-1-(((3S)-1-((3-cyano-1-azetidinyl)sulfonyl)-3-piperidinyl)carbonyl)-D-prolinamide], the AC1.4 was 4.606 µM. `CCc1ccnc(C(=O)N2[C@@H](C(=O)N[C@@H](c3cc(F)c(C(F)(F)F)cc3F)C3CC3)C[C@H]3C[C@H]32)c1` [Example 661, (1R,3R,5R)-N-((R)-cyclopropyl(2,5-difluoro-4-(trifluoromethyl)phenyl)methyl)-2-((4-ethyl-2-pyridinyl)carbonyl)-2-azabicyclo[3.1.0]hexane-3-carboxamide] was tested, and the AC1.4 was 4.1595 µM. For `CS(=O)(=O)c1cncc(C(=O)N2CCC[C@@H]2C(=O)N[C@@H](c2ccc(C(F)(F)F)cc2F)C2CC2)c1` [Example 662, N-((R)-cyclopropyl(2-fluoro-4-(trifluoromethyl)phenyl)methyl)-1-((5-(methylsulfonyl)-3-pyridinyl)carbonyl)-D-prolinamide], the AC1.4 was 4.4365 µM. `CC1(O)CN(S(=O)(=O)N2CCC[C@H](C(=O)N3CCC[C@@H]3C(=O)NCc3ccc(Cl)c(F)c3)C2)C1` [Example 663, N-(4-chloro-3-fluorobenzyl)-1-(((3S)-1-((3-hydroxy-3-methyl-1-azetidinyl)sulfonyl)-3-piperidinyl)carbonyl)-D-prolinamide] gave an AC1.4 of 4.6285 µM. For `O=C(NCc1ccc(C(F)(F)F)cc1)[C@H]1CCCN1C(=O)[C@H]1CCCN(S(=O)(=O)C2COC2)C1` [Example 664, 1-(((3S)-1-(3-oxetanylsulfonyl)-3-piperidinyl)carbonyl)-N-(4-(trifluoromethyl)benzyl)-D-prolinamide], the AC1.4 was 4.669 µM. In the case of `CS(=O)(=O)c1cc(C(=O)N2[C@@H](C(=O)N[C@@H](c3ccc(C(F)(F)F)c(F)c3)C3CC3)C[C@H]3C[C@H]32)ccn1` [Example 665, (1R,3R,5R)-N-((R)-cyclopropyl(3-fluoro-4-(trifluoromethyl)phenyl)methyl)-2-((2-(methylsulfonyl)-4-pyridinyl)carbonyl)-2-azabicyclo[3.1.0]hexane-3-carboxamide], the AC1.4 is reported as 4.554 µM. With `Cc1ccc(S(C)(=O)=O)cc1C(=O)N1CCC[C@@H]1C(=O)N[C@@H](c1ccc(C(F)(F)F)cc1F)C1CC1` [Example 666, N-((R)-cyclopropyl(2-fluoro-4-(trifluoromethyl)phenyl)methyl)-1-(2-methyl-5-(methylsulfonyl)benzoyl)-D-prolinamide] the AC1.4 was 4.7065 µM. Compound `O=C(N[C@@H](c1cc(F)c(Cl)cc1F)C1CC1)[C@H]1C[C@H]2C[C@H]2N1C(=O)c1cccc(C(F)(F)F)n1` [Example 667, (1R,3R,5R)-N-((R)-(4-chloro-2,5-difluorophenyl)(cyclopropyl)methyl)-2-((6-(trifluoromethyl)-2-pyridinyl)carbonyl)-2-azabicyclo[3.1.0]hexane-3-carboxamide] has an AC1.4 of 4.708 µM. `CCC(NC(=O)[C@H]1CCCN1C(=O)[C@H]1CCCN(S(=O)(=O)N2CC(C)(O)C2)C1)c1ccc(C(F)(F)F)cc1` (stereo partly drawn) [Example 668, (2R)-1-((S)-1-((3-hydroxy-3-methylazetidin-1-yl)sulfonyl)piperidine-3-carbonyl)-N-(1-(4-(trifluoromethyl)phenyl)propyl)pyrrolidine-2-carboxamide] showed an AC1.4 of 4.71 µM. `CC1(O)CN(S(=O)(=O)N2CCC[C@H](C(=O)N3CCC[C@@H]3C(=O)NCc3ccc(C(F)(F)F)cc3F)C2)C1` [Example 669, N-(2-fluoro-4-(trifluoromethyl)benzyl)-1-(((3S)-1-((3-hydroxy-3-methyl-1-azetidinyl)sulfonyl)-3-piperidinyl)carbonyl)-D-prolinamide] showed an AC1.4 of 4.727 µM. `C[C@@]1(C(=O)N[C@@H](c2cc(F)c(C(F)(F)F)cc2F)C2CC2)CCN1C(=O)c1cccc(S(C)(=O)=O)c1` [Example 670, (2S)-N-((R)-cyclopropyl(2,5-difluoro-4-(trifluoromethyl)phenyl)methyl)-2-methyl-1-(3-(methylsulfonyl)benzoyl)-2-azetidinecarboxamide] was tested, and the AC1.4 was 4.735 µM. Work on `N#CC1CN(S(=O)(=O)c2cccc(C(=O)N3Cc4ccccc4CC3C(=O)NCc3ccc(C(F)(F)F)cc3)c2)C1` (stereo not drawn) [Example 671, 2-(3-((3-cyanoazetidin-1-yl)sulfonyl)benzoyl)-N-(4-(trifluoromethyl)benzyl)-1,2,3,4-tetrahydroisoquinoline-3-carboxamide] yielded an AC1.4 of 4.776 µM. Compound `COc1ccc(CNC(=O)[C@H]2CCCN2C(=O)[C@H]2CCCN(S(=O)(=O)N3CC(C#N)C3)C2)cc1C` [Example 672, 1-(((3S)-1-((3-cyano-1-azetidinyl)sulfonyl)-3-piperidinyl)carbonyl)-N-(4-methoxy-3-methylbenzyl)-D-prolinamide] has an AC1.4 of 4.8355 µM. Compound `CS(=O)(=O)c1cccc(C(=O)N2CCC[C@@H]2C(=O)N[C@@H](c2ccc(C(F)(F)F)cc2F)C2(F)COC2)c1` [Example 673, N-((S)-(3-fluoro-3-oxetanyl)(2-fluoro-4-(trifluoromethyl)phenyl)methyl)-1-(3-(methylsulfonyl)benzoyl)-D-prolinamide] has an AC1.4 of 4.897 µM.
